Results reported in the supplement of paper PMC10307832.

Assays:
Test in all cases: relative viability (nuclei count vs DMSO), 5 days (fraction); higher = more cells survive
Everolimus + Trametinib = compound: CO[C@H]1C[C@@H]2CC[C@@H](C)[C@@](O)(O2)C(=O)C(=O)N2CCCC[C@H]2C(=O)O[C@H]([C@H](C)C[C@@H]2CC[C@@H](OCCO)[C@H](OC)C2)CC(=O)[C@H](C)/C=C(\C)[C@@H](O)[C@@H](OC)C(=O)[C@H](C)C[C@H](C)/C=C/C=C/C=C/1C [Everolimus] + CC(=O)Nc1cccc(-n2c(=O)n(C3CC3)c(=O)c3c(Nc4ccc(I)cc4F)n(C)c(=O)c(C)c32)c1 [Trametinib] (partner 0.02 µM)
Method in brief: (§1)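 For relative viability, nuclei counts in treated wells were divided by those in vehicle wells. Lung cancer cell lines had been pin-tool dosed in 1536-well plates the day after seeding and cultured for 5 days, then fixed and stained in one step (final 0.05% Triton X-100, 1% formaldehyde, 1 ug/ml Hoechst) and imaged at 4×. Doses were one drug alone or a fixed anchor-drug dose plus five library-drug doses (not always all listed) in √10 steps, and values are duplicate-plate medians.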

Everolimus + Navitoclax = compound: CO[C@H]1C[C@@H]2CC[C@@H](C)[C@@](O)(O2)C(=O)C(=O)N2CCCC[C@H]2C(=O)O[C@H]([C@H](C)C[C@@H]2CC[C@@H](OCCO)[C@H](OC)C2)CC(=O)[C@H](C)/C=C(\C)[C@@H](O)[C@@H](OC)C(=O)[C@H](C)C[C@H](C)/C=C/C=C/C=C/1C [Everolimus] + CC1(C)CCC(c2ccc(Cl)cc2)=C(CN2CCN(c3ccc(C(=O)NS(=O)(=O)c4ccc(N[C@H](CCN5CCOCC5)CSc5ccccc5)c(S(=O)(=O)C(F)(F)F)c4)cc3)CC2)C1 [Navitoclax] (partner 0.5 µM)
Method in brief: as §1

Everolimus + Phenformin = compound: CO[C@H]1C[C@@H]2CC[C@@H](C)[C@@](O)(O2)C(=O)C(=O)N2CCCC[C@H]2C(=O)O[C@H]([C@H](C)C[C@@H]2CC[C@@H](OCCO)[C@H](OC)C2)CC(=O)[C@H](C)/C=C(\C)[C@@H](O)[C@@H](OC)C(=O)[C@H](C)C[C@H](C)/C=C/C=C/C=C/1C [Everolimus] + N=C(N)NC(=N)NCCc1ccccc1 [Phenformin] (partner 250 µM)
Method in brief: as §1

Everolimus + Pemetrexed = compound: CO[C@H]1C[C@@H]2CC[C@@H](C)[C@@](O)(O2)C(=O)C(=O)N2CCCC[C@H]2C(=O)O[C@H]([C@H](C)C[C@@H]2CC[C@@H](OCCO)[C@H](OC)C2)CC(=O)[C@H](C)/C=C(\C)[C@@H](O)[C@@H](OC)C(=O)[C@H](C)C[C@H](C)/C=C/C=C/C=C/1C [Everolimus] + Nc1nc2[nH]cc(CCc3ccc(C(=O)N[C@@H](CCC(=O)O)C(=O)O)cc3)c2c(=O)[nH]1 [Pemetrexed] (partner 0.2 µM)
Method in brief: as §1

Cell Line | relative viability (Everolimus + Trametinib; first compound 0.01 µM) | relative viability (Everolimus + Trametinib; first compound 0.03162 µM) | relative viability (Everolimus + Trametinib; first compound 0.1 µM) | relative viability (Everolimus + Trametinib; first compound 0.3162 µM) | relative viability (Everolimus + Trametinib; first compound 1 µM) | relative viability (Everolimus + Navitoclax; first compound 0.01 µM) | relative viability (Everolimus + Navitoclax; first compound 0.03162 µM) | relative viability (Everolimus + Navitoclax; first compound 0.1 µM) | relative viability (Everolimus + Navitoclax; first compound 0.3162 µM) | relative viability (Everolimus + Navitoclax; first compound 1 µM) | relative viability (Everolimus + Phenformin; first compound 0.01 µM) | relative viability (Everolimus + Phenformin; first compound 0.03162 µM) | relative viability (Everolimus + Phenformin; first compound 0.1 µM) | relative viability (Everolimus + Phenformin; first compound 0.3162 µM) | relative viability (Everolimus + Phenformin; first compound 1 µM) | relative viability (Everolimus + Pemetrexed; first compound 0.01 µM) | relative viability (Everolimus + Pemetrexed; first compound 0.03162 µM) | relative viability (Everolimus + Pemetrexed; first compound 0.1 µM) | relative viability (Everolimus + Pemetrexed; first compound 0.3162 µM) | relative viability (Everolimus + Pemetrexed; first compound 1 µM)
COR-L 105 | 0.424 | 0.389 | 0.378 | 0.455 | 0.424 | 0.574 | 0.636 | 0.616 | 0.652 | 0.57 | 0.356 | 0.387 | 0.388 | 0.435 | 0.361 | 0.9 | 0.806 | 0.75 | 0.792 | 0.716
HCC-15 | 0.35 | 0.344 | 0.334 | 0.282 | 0.32 | 0.691 | 0.629 | 0.512 | 0.637 | 0.512 | 0.465 | 0.474 | 0.459 | 0.497 | 0.471 | 0.222 | 0.273 | 0.23 | 0.231 | 0.222
NCI-H2170 | 0.316 | 0.248 | 0.266 | 0.252 | 0.279 | 0.235 | 0.22 | 0.202 | 0.184 | 0.236 | 0.388 | 0.402 | 0.387 | 0.403 | 0.414 | 0.259 | 0.26 | 0.248 | 0.271 | 0.257
PC-3 [JPC-3] | 0.601 | 0.582 | 0.531 |  | 0.681 | 0.763 | 0.676 | 0.577 | 0.664 | 0.568 | 0.454 | 0.461 | 0.408 | 0.461 | 0.463 | 0.988 | 0.9 | 0.72 |  | 1.07
NCI-H1993 | 0.423 | 0.469 | 0.486 | 0.464 | 0.536 | 0.687 | 0.676 | 0.631 | 0.585 | 0.717 | 0.525 | 0.498 | 0.533 | 0.468 | 0.454 | 0.516 | 0.457 | 0.482 | 0.508 | 0.547
NCI-H1915 | 0.233 | 0.197 | 0.204 | 0.228 | 0.191 | 0.782 | 0.774 | 0.737 | 0.72 | 0.749 | 0.384 | 0.372 | 0.34 | 0.349 | 0.432 | 0.484 | 0.481 | 0.469 | 0.499 | 0.432
RERF-LC-KJ | 0.654 | 0.613 | 0.495 | 0.494 | 0.524 | 0.778 | 0.571 | 0.47 | 0.579 | 0.488 | 0.377 | 0.426 | 0.377 | 0.381 | 0.376 | 0.468 | 0.489 | 0.498 | 0.426 | 0.457
LOU-NH91 | 0.626 | 0.695 | 0.667 | 0.612 | 0.623 | 0.53 | 0.59 | 0.473 | 0.524 | 0.496 | 0.636 | 0.596 | 0.609 | 0.541 | 0.584 | 0.477 | 0.467 | 0.394 | 0.418 | 0.485
NCI-H2347 | 0.266 | 0.337 | 0.244 | 0.261 | 0.286 | 0.906 | 0.453 | 0.26 | 0.453 | 0.429 | 0.388 | 0.353 | 0.351 | 0.384 | 0.26 | 0.406 | 0.442 | 0.486 | 0.412 | 0.434
NCI-H2126 | 0.39 | 0.362 | 0.371 | 0.343 | 0.383 | 0.515 | 0.455 | 0.4 | 0.492 | 0.485 | 0.485 | 0.45 | 0.41 | 0.48 | 0.455 | 0.531 | 0.522 | 0.497 | 0.561 | 0.535
HCC-827 | 0.494 | 0.314 | 0.311 | 0.31 | 0.295 | 1.02 | 1.07 | 0.99 | 1.04 | 0.987 | 0.434 | 0.404 | 0.416 | 0.396 | 0.403 | 0.22 | 0.251 | 0.194 | 0.275 | 0.243
NCI-H3122 | 0.167 | 0.147 | 0.172 | 0.141 | 0.11 | 1.05 | 0.916 | 0.82 | 0.89 | 0.617 | 0.368 | 0.45 | 0.391 | 0.37 | 0.402 | 0.198 | 0.232 | 0.228 | 0.208 | 0.201
HOP-62 | 0.263 | 0.211 | 0.248 | 0.2 | 0.195 | 0.997 | 0.875 | 0.862 | 0.786 | 0.948 | 0.583 | 0.579 | 0.495 | 0.513 | 0.535 | 0.326 | 0.401 | 0.337 | 0.375 | 0.338
HCC-44 | 1.13 | 1.08 | 0.982 | 1.04 | 0.901 | 0.941 | 0.88 | 0.819 | 0.904 | 0.903 | 0.195 | 0.125 | 0.127 | 0.178 | 0.168 | 0.769 | 0.802 | 0.675 | 0.705 | 0.727
